We go through one compound from patent publication US20200375963A1 (priority 2017, published 2020).

Molecules are shown by their SMILES.

What all share (type): cell-based, human
Assay [1] concerns hypoxia-related gene expression in CD14+ monocytes. Nature of the assay: Gene expression in CD14+ monocytes (RNA seq, RT-qPCR).
For assay [2], the system named is HIF-1α. Nature of the assay: HIF-1α immunoblot of CD14+ and CD14− primary cells. Conditions: monocytes isolated from PBMCs then cultured 24 hours. As to the method:
(§1) Leukoreduction filters (Terumo BCT, Lakewood, Colo.), waste products of platelet donation process, were used to isolate PBMCs by an IRB-approved protocol. PBMCs were isolated using Histopaque-1077 (Sigma). Monocyte-enriched PBMCs (MEPs) were prepared using cold-aggregation method with slight modifications (30,60) Monocytes were isolated from MEPs or PBMCs using EasySep Human CD14 Positive Selection Kit (STEMCELL Technologies). Flow cytometric verification of isolated CD14+ cells were performed using RPCI core facility services. The MEPs were cultured at an average density of 25-35×10^6/ml in 1 or 2 ml per well in 6- or 12-well standard tissue culture plates under standard conditions (37° C./5% CO2) in RPMI-1640 medium with 10% FBS, 100 U/ml penicillin and […] streptomycin (Mediatech). Isolated CD14+ and CD14− cells were cultured at approximately 5×10^6 cell/ml and 7×10^6 cells per ml densities, respectively. THP-1 and TLA-HEK293T cell lines were purchased from ATCC, and Open Biosystems®, respectively, and cultured in recommended conditions. THP-1 cells were cultured in 10^6 cells per 100 μl in 96-well culture plates in ATCC-formulated-1640 medium (30-2001), whereas 293T cells were cultured in DMEM medium supplemented with 10% FBS.
(§2) Cells were cultured under 1% or 6% O2, 5% CO2 and 94% N2 at 37° C. using Xvivo System (Biospherix). Human ‘universal’ type I IFN was obtained from PBL Assay Science and used at 600 U/ml. Atpenin A5 (Cayman chemical #11898), myxothiazol (Sigma-Aldrich, #T5580) and 2-Thenoyltrifluoroacetone (TTFA) (Sigma-Aldrich, #T27006) were used at 1-2 μM and 400 μM final concentrations, respectively. DFO (Sigma-Aldrich #D9533) and DMOG (Sigma-Aldrich #D3695) were used in 0.5 mM and 1.0 mM final concentrations, respectively.
(§3) 2× Laemmeli buffer (BIO-RAD) was used to prepare whole cell lysates. The lysate resuspended in the Laemmeli buffer was heated at 95° C. for 15 minutes, and 40 μl of the sample was used to perform gel electrophoresis on pre-cast, 4%-15% gradient polyacrylamide gels (Mini-PROTEAN TGX, Bio-Rad) in Laemmeli buffer system. Mouse monoclonal anti-HIF1α (product number GTX628480, GT10211; 1:1000 dilution) and mouse monoclonal anti-β-actin (product number AM4302, AC-15; 1:15,000 dilution) was used to detect HIF-1α or actin, respectively followed by incubation with HRP-conjugated goat anti-mouse antibodies (Life Technologies) at 1:2000 dilution.

The test system of assay [3] is monocyte-enriched PBMCs (MEPs). The experiment in a line: Oxygen consumption in MEPs (MitoXpress-Xtra phosphorescent oxygen probe). The settings on record: approximately 3 hours, n=3 donors. As to the method:
(§4) We first measured oxygen consumption and L-lactate levels to confirm the effect of AtA5 and MXT on mitochondrial respiration in MEPs. We used a phosphorescent oxygen probe (MitoXpress-Xtra) which is quenched by oxygen. Cellular respiration in a closed system depletes oxygen and increases the fluorescence. […] Normoxic induction of RNA editing by MXT is also confirmed in a separate experiment from three additional donors (FIG. 11).
(§5) Oxygen consumption was measured using phosphorescent oxygen probe, MitoXpress-Xtra (Cayman Dual Assay Kit, item no. 601060). Monocytes were enriched to >50% purity by short-term cold aggregation and first cultured in standard conditions for 24 hours without treatment to stimulate metabolic activity. Cells were then centrifuged at 200×g for 7 minutes and resuspended in 1 ml RPMI/1% FBS with or without mitochondrial inhibitors. Cells are covered by mineral oil after addition of MitoXpress-Xtra following manufacturer's protocol. The fluorescence was kinetically measured on a plate reader (Synergy H1) at 20 sec intervals for approximately 3 hours (delay 70 μsec, collection time 30 μsec). Supernatants of the oxygen consumption assay were used to measure L-lactate levels following manufacturer's instructions.

Assay [4] has as its system monocyte-enriched PBMCs (MEPs). Nature of the assay: L-Lactate levels in extra-cellular media of MEPs. Conditions: supernatants of the oxygen consumption assay. As for the experimental part:
as §4, §5

The subject of assay [5] is HIF-1α. Nature of the assay: HIF-1α immunoblot of HEK293T cells. As to the method:
as §1, §2, §3

Assay [6] concerns HIF-1α. Nature of the assay: HIF-1α immunoblot of THP-1 cells. The settings on record: THP-1, normoxia, 24 hours. As to the method:
as §1
Cells were cultured under 1% or 6% O2, 5% CO2 and 94% N2 at 37° C. using Xvivo System (Biospherix). […]

The test system of assay [7] is hypoxia-response elements (HRE) from PGK1, a HIF-1α target gene. The experiment in a line: HRE-luciferase reporter in HEK293T cells. The settings on record: 293T, 6% O2, 24 hours. As to the method: It is possible that HIF-1α may have degraded depending on cell type, time of analysis (24 h) or another factor. Therefore, we further examined the effect of AtA5 in HEK293T embryonic kidney cell line and THP-1 monocytic leukemia cell line over a 24 hour period. Several studies in cell lines have reported normoxic stabilization of HIF-1α upon knocking down MTCII (Selak et al., (2005), Cancer. Cell, 7, 77-85, Guzy et al., (2008), Mol. Cell. Biol., 28, 718-731, Cervera et al., (2008), Cancer Res., 68, 4058-4067). […] Since AtA5 appeared to suppress HIF-1α in mild hypoxia, we exposed the cells to both 6% and 1% O2. […] To confirm the suppression of HIF-regulated gene expression, we used a plasmid construct expressing firefly luciferase under the control of three hypoxia-response elements […] from PGK1, a HIF-1α target gene.
HEK293T cells were cotransfected with the 400 ng of HRE-luciferase (Addgene, plasmid #26731), 1 ng of pRL-SV40 plasmid, 600 ng of pcDNA 3.1(+) (control empty vector) per well at ˜50-60% confluency using jetPRIME (Polyplus-transfection) in 12-well culture plates as per the manufacturer's instructions. Transfection efficiency was 60%-80% as assessed by fluorescent microscopy of cells co-transfected with the pLemiR plasmid DNA (Open Biosystems) for expression of a red fluorescent protein. Cells were harvested 2 days after transfection for measurement of their HRE and Renilla luciferase activities using Dual-Luciferase Reporter Assay System (Promega). HRE expression was quantified as a ratio of HRE/Renilla luciferase activities.

In the case of `COc1[nH]c(O)c(C(=O)[C@@H](C)C[C@H](C)[C@@H](Cl)CCl)c(=O)c1OC` [AtA5, 3-((2S,4S,5R)-5,6-dichloro-2,4-dimethylhexanoyl)-2-hydroxy-5,6-dimethoxypyridin-4(1H)-one], the “expression of selected genes (ADM, ELL2, HILPDA, NGLY1, MET, TKTL1 and VEGFA), RT-qPCR” value in assay [1] (CD14+ cells, AtA5/normoxia day 2) is “induction of selected highly-expressed genes”. Also, in assay [1] (CD14+ cells, AtA5/normoxia, RNA seq), the “transcriptional upregulation of A3A” value was “without transcriptional upregulation of A3A”. The “RNA editing in genes other than SDHB” value in assay [1] (CD14+ cells, RNA seq analysis) is on record as “induction of RNA editing in genes other than SDHB”. The “mRNA expression of VEGFA and HILPDA” value in assay [1] (isolated CD14+ monocytes, normoxia, 1 day, n=3 donors) is recorded as “statistically significantly increased”. The “HIF-1α stabilization (western blot)” value is listed as “appeared to enhance the stabilization of HIF-1α in hypoxic monocytes in two of three donors” in the assay with HIF-1α [2] (hypoxia (1% O2), three donors) and “did not robustly stabilize HIF-1α” in the assay on HIF-1α [2] (normoxia). The oxygen consumption result in assay [3] is recorded as “reduced but did not abolish it”. Also, in assay [4], the L-Lactate levels result is reported as “increased relative to the degree of respiratory inhibition”. The “stabilization of HIF-1α” value with HIF-1α [5] (293T, 1% O2, 24 hours) is “only at 6% O2”; with HIF-1α [5] (293T, 6% O2, 24 hours), “inhibited stabilization of HIF-1α only at 6% O2”; in the assay on HIF-1α [5] (HEK293T, normoxia, 24 hours, DMOG 1 mM, DFO 0.5 mM, AtA5 1 μM), “not AtA5 stabilized HIF-1α”; with HIF-1α [6], “antagonized weak normoxic stabilization of HIF-1α”. In addition, in the assay on HIF-1α [5] (HEK293T, normoxia, 24 hours, AtA5 1 μM), the “weak HIF-1α expression in normoxia” value is “suppressed the weak HIF-1α expression in normoxia”. The “HRE-driven expression (ratio of HRE/Renilla luciferase activities)” value in assay [7] is “statistically significantly suppressed”.
